According to paper PMC10304225, “In Vitro Cytotoxicity and In Vivo Antitumor Activity of Lipid Nanocapsules Loaded with Novel Pyridine Derivatives” (Pharmaceutics, 2023):
Values after ≈ are worked out from the molar mass of the structure shown.

What was measured:
[1] = Solubility measurement in various solvents (excess compound, 72 h shaking); type: physicochemical; details: for solubility in PB (pH 7.4): phosphate buffer pH 7.4
Method: The solubility of 2-amino-4-aryl-6-substituted pyridine-3,5-dicarbonitrile derivatives (S1–S4) in various solvents (methanol, ethanol, phosphate buffer, and water) was determined by adding an excess amount of each compound to 10 mL of each solvent in a sealed conical flask. The slurry was then agitated at 100 rpm in a temperature-controlled incubator shaker for 72 h to reach equilibrium. The undissolved particles were allowed to settle by keeping the saturated solution without agitation for another 2 h. The solution was then centrifuged at 10,000 rpm for 10 min. One mL samples of the clear supernatant was withdrawn, diluted with the suitable solvent, and finally analyzed spectrophotometrically at pre-determined wavelengths (Table S1).

A549 cells = test: In vitro cytotoxicity, MTT assay; type: cell-based, human; details: 48 h, read-out: IC50 against A549
Method: (§1) A human lung cancer (A549) cell line, human breast adenocarcinoma (MCF-7), and normal MCF-10A human […] were obtained from VASCERA Co. (Vaccines Sera and Drugs; Cairo, Egypt). […] were cultured in Dulbecco’s modified Eagle’s medium (DMEM, Biowest, Nuaillé, France) supplemented with 10% fetal bovine serum, 100 U/mL penicillin/100 μg/mL streptomycin, and incubated under standard conditions (37 °C, 5% CO2).
(§2) The in vitro cytotoxicities of various pyridine derivatives loaded into LPNCs against A549 cells and MCF-7 cells were evaluated by the MTT assay. Briefly, 100 μL cell suspension equivalent to 1 × 10^4 cells/well was planted in a 96-well plate and incubated at 37 °C. At 24 h post-incubation, the cells were treated with 100 μL of serial dilutions of either free pyridine derivatives (S1–S4) or pyridine derivatives (S1–S4)-loaded LPNCs in a concentration range of 0.1 to 100 μM. The cells were further incubated at 37 °C for 48 h. The spent culture medium was then decanted, the cells were rinsed, 50 μL of MTT reagent (0.5 mg/mL) was added to each well, and the cells were incubated for 4 h at 37 °C. Finally, to dissolve the formazan crystals, DMSO solution (150 μL) was added to each well. The absorbance of each well was measured at 570 nm using a microplate reader (TEKAN Japan, Kawasaki, Japan). The percent cell viability was plotted against the tested compound concentration to determine the IC50 values.

MCF-7 cells = test: In vitro cytotoxicity, MTT assay; type: cell-based, human; details: 48 h, read-out: IC50 against MCF-7
Method: as §1, §2

Swiss Albino mice [2] = test: Median lethal dose (LD50), single i.p. injection; type: in vivo; details: for Number of animal dead: n=5, 24 h
Method: The median lethal dose (LD50) test was performed to determine the dose of a test substance that elicits 50% death in mice. Briefly, a total of 30 mice were categorized into 6 groups (n = 5). Each group was dosed with a single intraperitoneal injection of the test compound (S4) dissolved in 3% dimethyl sulfoxide. The screened doses ranged from 100 to 180 mg/kg. The animals were then monitored for 2 h and then at 4, 6, and 24 h for signs of toxicity. At the end of 24 h, the total number of deaths was recorded. The LD50 was then calculated using the following equation [27]: LD50=LD100−{Σ[Dose difference×Mean dead]}/Number of animals per group where LD100 is the lowest dose capable of killing 100% of animals.

Swiss Albino mice [3] = test: Acute toxicity study, single i.p. dose; type: in vivo
Method: Acute toxicity studies are carried out in order to evaluate the short-term negative effects of a test compound when administered in a single dose during a period of 24 h. Briefly, the maximum tolerated dose (100 mg/kg) of the test compound (S4), dissolved in 3% dimethyl sulfoxide, was injected intraperitoneally in a group of mice (n = 5). A control group (n = 5) was i.p. injected with an equivalent volume of 3% dimethyl sulfoxide. The mice were then observed for general behavior for 1 h post-treatment and then intermittently for 4 h and finally at 24 h. The mice were then monitored for up to 14 days after treatment for symptoms of toxicity or mortalities.

[4] = test system: Ehrlich ascites carcinoma (EAC) solid tumor; test: In vivo antitumor activity in EAC solid tumor-bearing mice; details: 10 mg/kg i.p. every other day for 21 days
Method: Ehrlich ascites carcinoma (EAC) cells (1 × 10^6 cells) obtained from the National Cancer Institute (Cairo, Egypt) were injected intraperitoneally into the peritoneal cavity of Swiss Albino mice. On day 7 post tumor cell inoculation, ascites fluid was collected. EAC was diluted with saline to obtain a cell density of 25 × 10^6 cells/mL. Then, 200 μL of the cells were injected subcutaneously in the mice’s right flanks. Tumor growth was monitored post-inoculation, and the size of the tumor was measured with a Vernier caliper. Treatment protocols were initiated on day 8 post tumor inoculation, when the tumor was palpable. […]
The dose and route of administration of the test compound and the treatment regimen were established based on previously published reports. The antitumor efficacy of different treatment protocols was evaluated in terms of tumor size, percentage tumor growth inhibition (% TGI), median survival time (MST), and percentage increase in life span (% ILS) using the following equations [31, 32]:Tumor size (mm^3) = ½ (Length × Width^2) % TGI=1−Mean tumor volume of treated group/Mean tumor volume in control group×100 MST = (day of first death + day of last death)/2 %ILS=MSTtreated group/MSTcontrol group−1×100
In addition, body weight was assessed concurrently to determine any remarkable systemic toxicity.

[5] = test system: Ehrlich ascites carcinoma (EAC) solid tumor; test: Histopathological examination of solid tumors (H&E); type: in vivo, mice; details: 10 mg/kg
Method: On the last day of the experiment, solid tumors were dissected from all mice and were fixed […] in formalin-alcohol for 48 h, dehydrated in an alcohol series, cleared in xylene, and embedded in paraffin. Sections (4–5 μm in thickness) were stained with hematoxylin and eosin (H&E). Slides were then imaged using a Universal Infinity System optical microscope (Olympus®, Tokyo, Japan) equipped with a computer-controlled digital camera. A histopathological analysis of the tumor sections was focused on finding a typical mitotic picture, neoplastic giant cells, and the extension of the necrotic area. Histopathological examinations were evaluated in a blinded way by a pathologist.

[6] = Biochemical analysis of liver and kidney functions in serum; type: in vivo; details: EAC-bearing mice, 10 mg/kg i.p., last day of experiment
Method: On the last day of the experiment, 4 out 8 mice were euthanized, and blood samples were collected by cardiac puncture in dry Eppendorf tubes. Blood samples were set aside for 30 min at room temperature and the tubes were then centrifuged for 15 min at 2000× g to obtain serum. To assess possible hepatic damage, aspartate transaminase (AST) and alanine transaminase (ALT) activities in serum samples were assayed by using a commercial kit (Biodiagnostic, Cairo, Egypt) according to the method of Reitman and Frankel. In addition, serum creatinine level was quantified as an indicator for possible renal damage. The level of serum creatinine was analyzed by using a commercial kit that was purchased from Biodiagnostic (Cairo, Egypt) according to manufacturer instructions.

| SMILES | solubility in ethanol [1] [mg/mL] | solubility in methanol [1] [mg/mL] | solubility in PB (pH 7.4) [1] [mg/ml] | solubility in water [1] [mg/mL] | IC50 (A549 cells) [µM] | IC50 (MCF-7 cells) [µM] | lethality and signs of toxicity (Swiss Albino mice [2]; 100 mg/kg i.p.) | Number of animal dead (Swiss Albino mice [2]; 100 mg/kg i.p.) | lethality (Swiss Albino mice [2]; 120 mg/kg and higher, i.p.) | Number of animal dead (Swiss Albino mice [2]; 120 mg/kg i.p.) | Number of animal dead (Swiss Albino mice [2]; 140 mg/kg i.p.) | Number of animal dead (Swiss Albino mice [2]; 160 mg/kg i.p.) | Number of animal dead (Swiss Albino mice [2]; 180 mg/kg i.p.) | maximum tolerated dose (Swiss Albino mice [3]; mice, i.p.) [mg/kg] | acute toxicity observations (Swiss Albino mice [3]; up to 100 mg/kg i.p., monitored up to 14 days) | tumor growth inhibition rate (TGI (%)) [4] [%] | tumor section histology [5] | ALT [6] [IU/L] | AST [6] [IU/L] | Creatinine [6] [mg/dL] |
| --- | --- | --- | --- | --- | --- | --- | --- | --- | --- | --- | --- | --- | --- | --- | --- | --- | --- | --- | --- | --- |
| Cc1ccc(Nc2nc(N)c(C#N)c(-c3ccccc3)c2C#N)cc1 [Compound S2] | 13.82 ± 0.326 (≈ 42.5 mM) | 25.71 ± 0.323 (≈ 79 mM) | 1.63 ± 0.005 | 1.25 ± 0.006 (≈ 3.84 mM) | > 100 | > 100 | – | – | – | – | – | – | – | – | – | – | – | – | – | – |
| N#Cc1c(N)nc(Nc2ccccc2)c(C#N)c1-c1ccccc1 [Compound S4] | 18.56 ± 0.337 (≈ 59.6 mM) | 16.57 ± 0.315 (≈ 53.2 mM) | 0.59 ± 0.001 | 0.58 ± 0.002 (≈ 1.86 mM) | > 100 | > 100 | not lethal but only induced drowsiness | 0 | lethal to animals | 5 | 5 | 5 | 5 | 100 | no behavioral abnormalities, toxicity symptoms, or mortalities were detected | 73.42 | loss of cellular architecture and tumor tissue compactness | 20.50 ± 1.28 | 36.66 ± 1.87 | 0.54 ± 0.02 |
| N#Cc1c(N)nc(N)c(C#N)c1-c1ccccc1 [Compound S3] | 18.86 ± 0.225 (≈ 80.2 mM) | 35.36 ± 0.203 (≈ 150 mM) | 0.59 ± 0.010 | 0.99 ± 0.007 (≈ 4.21 mM) | > 100 | > 100 | – | – | – | – | – | – | – | – | – | – | – | – | – | – |
| CCNc1nc(N)c(C#N)c(-c2ccccc2)c1C#N [Compound S1] | 5.98 ± 0.230 (≈ 22.7 mM) | 21.76 ± 0.260 (≈ 82.6 mM) | – | 0.57 ± 0.021 (≈ 2.16 mM) | > 100 | > 100 | – | – | – | – | – | – | – | – | – | – | – | – | – | – |
| O=c1[nH]cc(F)c(=O)[nH]1 [Compound 5-FU, 5-fluorouracil, reference compound] | – | – | – | – | – | – | – | – | – | – | – | – | – | – | – | 86.81 | loss of cellular architecture and tumor tissue compactness | 51.87 ± 1.29 | 74.23 ± 3.84 | 1.05 ± 0.15 |
